Tests used:
[1] = Passive Avoidance Anoxic Induced Amnesia Test in mice; type: in vivo, Swiss-Webster mice; conditions: vs saline control, 30% considered active
Description: Another in vivo test associated with decreased neural function in mammals is the Passive Avoidance Anoxic Induced Amnesia Test. This test is used to determine the attenuation of anoxic induced amnesia in mice treated with drug, as compared to saline treated control animals with no drug.
A shock-motivated, single trial, step-through passive avoidance procedure is used. Groups of 25 Swiss-Webster, middle-aged mice (9 months of age) are placed singly in the front chamber of a 2-chamber box and are allowed to voluntarily cross into the rear chamber. As soon as the mouse enters the rear chamber, a door automatically traps the animal and a mild electric shock (0.4 mA for 4 seconds) is delivered to its feet. Following the foot shock, the mice are initially placed in an anoxic environment (0% oxygen) for 12 seconds, which quickly induces unconsciousness. They are then placed in an hypoxic environment (15% oxygen) for four minutes which prolongs the oxygen deprived state, maintaining unconsciousness. All testing is performed 24 hours later, and in all cases the mice appear fully recovered from the previous anoxic/hypoxic treatment. All test compounds are administered intraperitoneally at a dose of 10-200 mg/kg, 30 minutes prior to training and testing. Control animals are injected intraperitoneally only with saline at 0.01 cc/g of body weight.
The latency to enter the rear chamber is recorded for both training and testing. Presumably, the more the animal remembers being shocked, the greater it will inhibit going into the rear chamber and the higher will be its latency to re-enter. An improvement of 30% over saline control scores is considered active.

[2] = Hypoxic Survival Test in mice; type: in vivo, Royal Hart mice; conditions: survival after 5 minutes; for % Survivors: 30 min before hypoxia
Method: A useful in vivo test that measures how effectively central nervous system-acting drugs enhance survival in a hypoxic environment, presumably by improving the ratio of energy supply to demand is known as the Hypoxic Survival Test. […] Drugs are tested by intraperitoneally injecting groups of mice 30 minutes prior to placing them in a hypoxic mixture and measuring survival. The rationale of this test is that drugs which enhance survival under hypoxic conditions without concomitant, depression or sedative side effects, may do so by enhancing energy metabolism, or by preserving normal brain function under conditions of reduced energy metabolism. Given the dependence of the brain on a constant supply of energy, drugs which have this property may have many far-reaching therapeutic indications, including recovery from stroke and closed head injury, as well as reducing the deleterious effects of the aging central nervous system.
Groups of 20 Royal Hart mice (6 weeks of age) are injected intraperitoneally with test compound (1-200 mg/kg) 30 minutes prior to placing them in a hypoxic mixture (10% oxygen in 90% […]) and measuring survival after 5 minutes.
A separate group of 20 mice is injected intraperitoneally with saline solution (0.01 cc/g of body weight) and processed as described above.
Still another group of 20 mice is injected intraperitoneally with 0.125 mg/kg of physostigmine and processed as described above.

[3] = Reduction of mean arterial blood pressure in spontaneously hypertensive rats; type: in vivo, spontaneously hypertensive rats of the Okamoto strain; conditions: gavage, 100 mg/kg or less, two doses 24 h apart, measured at 28 hours; average mean arterial blood pressure of the rats 160 mm Hg
Method: Certain of the novel compounds of the present invention are active hypotensive agents at non-toxic doses when administered to mammals. These compounds were tested for hypotensive activity by the method of P. S. Chan and D. Poorvin, Clinical and Experimental Hypertension, 1 (6), 817-830 (1979). Male, 16 week old, spontaneously hypertensive rats of the Okamoto strain having an average mean arterial blood pressure of 160+1.5 mm of mercury are used in the test. One to 3 rats are used per test compound. A rat is dosed by gavage with a test compound, suspended in 2% pre-boiled starch at a concentration of 50 mg/ml, at a dose of 100 mg/kg of body weight or less, with 0.9% sodium chloride loading at a dose of 25 ml/kg of body weight. A second identical dose of the test compound, without sodium chloride loading is given 24 hours later. At 28 hours after the initial dose the mean arterial blood pressure is measured by the method of Chan and Poorvin vide supra. The procedure is repeated in a second and third rat when necessary.

[4] = system: brain-specific receptors of rats (3H-benzodiazepine binding); assay: Inhibition of the binding of 3H-benzodiazepine to brain-specific receptors of rats; design: species or system rat (Wistar strain); conditions: rat cortex P2 fraction; 3H-diazepam 1.5 nM or 3H-flunitrazepam 1.0 nM; test concentration not given; 12% or more is active
Description: A test utilized for the determination of anxiolytic activity is the measurement of the ability of test compounds to inhibit the binding of tritiated benzodiazepines to brain-specific receptors of warm-blooded animals. A modification of the method described by R. F. Squires, et al., Nature, 266, No. 21, pg 732 (Apr. 1977) and H. Mohler, et al., Science, 198, pg 849 (1977) was employed.
Male albino rats (Wistar strain, weighing 150-200 g each) were used. The test compounds were solubilized in either dimethylformamide, acetic acid, ethanol or hydrochloric acid.
Whole cortex of rats was homogenized gently in 20 volumes of ice-cold 0.32 M sucrose, centrifuged twice at 1000 g for 10 minutes and then recentrifuged at 30,000 g for 20 minutes to produce a crude P2 -synaptosomal fraction. The P2 -fraction was either: (1) resuspended in twice the original volume in hypotonic 50 mM Tris.HCl (pH 7.4), or (2) resuspended in one-half the original volume in hypotonic 10 mM Tris.HCl (pH 7.4) and frozen (-20° C.) until time of use. Frozen P2 preparations were thawed and resuspended in four times the original homogenizing volume at time of assay.
The binding assay consisted of 300 μl of the P2 -fraction suspension (0.2-0.4 mg protein), 100 μl of test drug and 100 μl of ^3 H-diazepam (1.5 nM, final concentration) or ^3 H-flunitrazepam (1.0 nM, final concentration) which was added to 1.5 ml of 50 mM Tris.HCl (pH 7.4). Non-specific binding controls and total binding controls received 100 μl of diazepam (3 μM final concentration) and 100 μl of deionized water, respectively, in place of the test compound. Incubation for 30 minutes proceeded in ice and was terminated by filtration, under vacuum, through glass fiber filters. […] After drying at 50°-60° C. for 30 minutes, 10 ml of diluent was added and the radioactivity determined in a scintillation counter.
Inhibition of binding was calculated by the difference between total binding and binding in the presence of test compound, divided by the total binding, X 100. […]

With `O=c1[nH]c(=O)n2c3c1ncn3C(c1cccc(Cl)c1)=CC2` [4-(3-Chlorophenyl)-6H,8H-pyrimido[1,2,3-cd]purine-8,10(9H)-dione] the “% Improvement” value ([1]; 25 mg/kg i.p.) was 42% and the “% Improvement” value ([1]; 50 mg/kg i.p.) was 43%.

In the case of `O=c1[nH]c(=O)n2c3c1ncn3C(c1cccc([N+](=O)[O-])c1)=CC2` [4-(3-Nitrophenyl)-6H,8H-pyrimido[1,2,3-cd]purine-8,10(9H)-dione], the “% Survivors” value ([2]; 200 mg/kg i.p.) is reported as 47%.

In the case of `O=c1[nH]c(=O)n2c3c1ncn3C(c1cccnc1)=CC2` [4-(3-Pyridinyl)-6H,8H-pyrimido[1,2,3-cd]purine-8,10(9H)-dione], the “Mean arterial blood pressure” value [3] is reported as 127 mm Hg.

For `Cc1ccc(C2=CCn3c(=O)[nH]c(=O)c4ncn2c43)cc1` [4-(4-Methylphenyl)-6H,8H-pyrimido[1,2,3-cd]purine-8,10(9H)-dione], the “Mean arterial blood pressure” value [3] was 127 mm Hg.

In the case of `O=c1[nH]c(=O)n2c3c1ncn3C(c1cccc(C(F)(F)F)c1)=CC2` [4-[3-(Trifluoromethyl)phenyl]-6H,8H-pyrimido[1,2,3-cd]purine-8,10(9H)-dione], the “% Inhibition of the binding of 3H-benzodiazepine” value (“% Inhibition” for short) [4] is reported as 54%, the “% Improvement” value ([1]; 50 mg/kg i.p.) is reported as 144% and the “% Improvement” value ([1]; 100 mg/kg i.p.) is reported as 44%.

In the case of `O=c1[nH]c(=O)n2c3c1ncn3C(c1ccc(N3CCOCC3)cc1)=CC2` [4-[4-(4-Morpholinyl)phenyl]-6H,8H-pyrimido[1,2,3-cd]purine-8,10(9H)-dione], the “% Survivors” value ([2]; 100 mg/kg i.p.) is reported as 55% and the “% Improvement” value ([1]; 25 mg/kg i.p.) is reported as 34%.

With `CSc1nc(=O)c2ncn3c2n1CC=C3c1ccccc1` [8-(Methylthio)-4-phenyl-6H,10H-pyrimido[1,2-cd]-purin-10-one] the “% Inhibition” value [4] was 13%.

For `O=c1c2ncn3c2n(c(=O)n1Cc1ccccc1)CC=C3c1cccc(C(F)(F)F)c1` [9-(Phenylmethyl)-4-[3-(trifluoromethyl)phenyl]-6H,8H-pyrimido[1,2,3-cd]purine-8,10(9H)-dione], the “Mean arterial blood pressure” value [3] was 132 mm Hg.

With `CCn1c(=O)c2ncn3c2n(c1=O)CC=C3c1cccc(C(F)(F)F)c1` [9-Ethyl-4-[3-(trifluoromethyl)phenyl]-6H,8H-pyrimido[1,2,3-cd]purine-8,10(9H)-dione] the “% Inhibition” value [4] was 17%.

In the case of `Cn1c(=O)c2ncn3c2n(c1=O)CC=C3c1cccc(C(F)(F)F)c1` [9-Methyl-4-[3-(trifluoromethyl)phenyl]-6H,8H-pyrimido[1,2,3-cd]purine-8,10(9H)-dione], the “% Improvement” value ([1]; 10 mg/kg i.p.) is reported as 66%, the “% Improvement” value ([1]; 25 mg/kg i.p.) is reported as 69% and the “% Improvement” value ([1]; 50 mg/kg i.p.) is reported as 56%. For the same compound, the “% Improvement” value ([1]; 100 mg/kg i.p.) was 39%.

In the case of `CNC(=O)Oc1ccc2c(c1)[C@]1(C)CCN(C)[C@@H]1N2C` [physostigmine, reference compound], the “physostigmine treated mice surviving” value ([2]; 10% oxygen, 0.125 mg/kg i.p., saline controls 5-20%) is reported as 60-80%.

— patent publication US4904658A, “Substituted-6H,8H-pyrimido-[1,2,3-cd]purine-8,10-(9H)-diones and substituted-6H,10H-pyrimido[1,2-cd]purin-10-ones” (American Cyanamid Company, priority 1988, dated 1990)
